Source: PubChem BioAssay AID248 (DTP/NCI, 2004)
“And” between values parts separate entries of the source, which are not always exact repeats. Equal values may be shown once. Inconclusive results and toxic doses are left out. Cut-off read from the data, not from the text of the source: active = T/C of 150% or more; inactive = T/C below 125%.

System: L1210 leukemia ip in BDF1 mice, survival T/C
Assay: NCI In Vivo Anticancer Drug Screen. Data for tumor model L1210 Leukemia (intraperitoneal) in B6D2F1 (BDF1) mice
Conditions: endpoint: mean survival time, higher = longer survival
Method in brief: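 Each compound was tested against a transplantable tumor grown in mice. The endpoint was survival, with treated animals benchmarked against vehicle controls as a simple ratio.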

[1] = dose: 100.0 mg/kg/injection, schedule: Q01DX009 (ip), vehicle: Klucel (hydroxypropylcellulose) (HPC)
[2] = dose: 100.0 mg/kg/injection, schedule: Q04DX002 (ip), vehicle: Klucel (hydroxypropylcellulose) (HPC)
[3] = dose: 200.0 mg/kg/injection, schedule: Q04DX002 (ip), vehicle: Klucel (hydroxypropylcellulose) (HPC)
[4] = dose: 400.0 mg/kg/injection, schedule: Q04DX002 (ip), vehicle: Klucel (hydroxypropylcellulose) (HPC)
[5] = dose: 50.0 mg/kg/injection, schedule: Q01DX009 (ip), vehicle: Klucel (hydroxypropylcellulose) (HPC)
[6] = dose: 100.0 mg/kg/injection, schedule: Q01DX001 (ip), vehicle: carboxymethylcellulose (CMC)
[7] = dose: 133.0 mg/kg/injection, schedule: Q01DX001 (ip), vehicle: carboxymethylcellulose (CMC)
[8] = dose: 200.0 mg/kg/injection, schedule: Q01DX001 (ip), vehicle: carboxymethylcellulose (CMC)
[9] = dose: 200.0 mg/kg/injection, schedule: Q01DX001 (ip), vehicle: other
[10] = dose: 300.0 mg/kg/injection, schedule: Q01DX001 (ip), vehicle: carboxymethylcellulose (CMC)
[11] = dose: 400.0 mg/kg/injection, schedule: Q01DX001 (ip), vehicle: carboxymethylcellulose (CMC)
[12] = dose: 100.0 mg/kg/injection, schedule: Q04DX003 (ip), vehicle: saline with Tween-80
[13] = dose: 200.0 mg/kg/injection, schedule: Q04DX003 (ip), vehicle: saline with Tween-80
[14] = dose: 100.0 mg/kg/injection, schedule: Q01DX001 (ip), vehicle: saline
[15] = dose: 100.0 mg/kg/injection, schedule: Q01DX009 (ip), vehicle: saline
[16] = dose: 100.0 mg/kg/injection, schedule: Q04DX003 (ip), vehicle: saline
[17] = dose: 200.0 mg/kg/injection, schedule: Q01DX001 (ip), vehicle: saline
[18] = dose: 200.0 mg/kg/injection, schedule: Q04DX003 (ip), vehicle: saline
[19] = dose: 400.0 mg/kg/injection, schedule: Q01DX001 (ip), vehicle: saline

Measured: T/C

CCCCCOc1ccc(C(=O)CC(=O)OCC)cc1
inactive: [1] 98 % of control | dose: 100.0 mg/kg/injection, schedule: Q04DX003 (ip), vehicle: Klucel (hydroxypropylcellulose) (HPC) 93 % of control | dose: 200.0 mg/kg/injection, schedule: Q01DX009 (ip), vehicle: Klucel (hydroxypropylcellulose) (HPC) 104 % of control | dose: 200.0 mg/kg/injection, schedule: Q04DX003 (ip), vehicle: Klucel (hydroxypropylcellulose) (HPC) 95 % of control | dose: 400.0 mg/kg/injection, schedule: Q01DX009 (ip), vehicle: Klucel (hydroxypropylcellulose) (HPC) 93 % of control | dose: 400.0 mg/kg/injection, schedule: Q04DX003 (ip), vehicle: Klucel (hydroxypropylcellulose) (HPC) 93 % of control

COc1ccc(Cl)cc1NC(=S)Nc1ccccc1
inactive: [2] 90 % of control | [3] 101 % of control | [4] 101 % of control

Cc1cc(N(CCOS(C)(=O)=O)CCOS(C)(=O)=O)ccc1C=Nc1ccc(-c2csc(-c3ccc(Cl)cc3)n2)cc1
inactive: dose: 25.0 mg/kg/injection, schedule: Q01DX009 (ip), vehicle: Klucel (hydroxypropylcellulose) (HPC) 112 % of control | [5] 86 % of control

CC12CCC(C1)C(C)(C)/C2=N\N=C(N)N (stereo not drawn)
inactive: dose: 15.0 mg/kg/injection, schedule: Q01DX Z (ip), vehicle: saline 93 % of control | dose: 30.0 mg/kg/injection, schedule: Q01DX Z (ip), vehicle: saline 103 % of control | dose: 60.0 mg/kg/injection, schedule: Q01DX Z (ip), vehicle: saline 93 % of control | dose: 120.0 mg/kg/injection, schedule: Q01DX Z (ip), vehicle: saline 97 % of control | dose: 188.0 mg/kg/injection, schedule: Q01DX Z (oral), vehicle: saline 103 % of control | dose: 375.0 mg/kg/injection, schedule: Q01DX Z (oral), vehicle: saline 105 % of control | dose: 750.0 mg/kg/injection, schedule: Q01DX Z (oral), vehicle: saline 91 % of control

O=C1C(=C(C(F)(F)F)C(F)(F)F)CCc2ccccc21
inactive: [5] 95 % of control | dose: 100.0 mg/kg/injection, schedule: Q01DX001 (ip), vehicle: Klucel (hydroxypropylcellulose) (HPC) 91 % of control | [1] 93 % of control | dose: 200.0 mg/kg/injection, schedule: Q01DX001 (ip), vehicle: Klucel (hydroxypropylcellulose) (HPC) 91 % of control

NC(=O)Nc1ccc2c(c1)Cc1cc(F)ccc1-2
inactive: dose: 87.0 mg/kg/injection, schedule: Q01DX001 (ip), vehicle: other 100 % of control | dose: 89.0 mg/kg/injection, schedule: Q01DX001 (ip), vehicle: carboxymethylcellulose (CMC) 97 % of control and 109 % of control | [6] 97 % of control | dose: 132.0 mg/kg/injection, schedule: Q01DX001 (ip), vehicle: other 97 % of control | [7] 100 % of control and 112 % of control | [8] 104 % of control and 105 % of control | [9] 92 % of control | [10] 101 % of control and 108 % of control | dose: 300.0 mg/kg/injection, schedule: Q01DX001 (ip), vehicle: other 97 % of control | [11] 105 % of control

NC(=S)N/N=C/c1nc2ccccc2[nH]c1=O
inactive: dose: 26.0 mg/kg/injection, schedule: Q03HX032 (ip), vehicle: saline with Tween-80 90 % of control and 91 % of control | dose: 40.0 mg/kg/injection, schedule: Q03HX032 (ip), vehicle: saline with Tween-80 95 % of control and 87 % of control | dose: 60.0 mg/kg/injection, schedule: Q03HX032 (ip), vehicle: saline with Tween-80 88 % of control and 90 % of control | dose: 90.0 mg/kg/injection, schedule: Q03HX032 (ip), vehicle: saline with Tween-80 94 % of control and 89 % of control | dose: 135.0 mg/kg/injection, schedule: Q03HX032 (ip), vehicle: saline with Tween-80 89 % of control

COc1cccc(-n2cccc2)c1
inactive: dose: 100.0 mg/kg/injection, schedule: Q01DX001 (ip), vehicle: other 103 % of control | [9] 105 % of control | dose: 400.0 mg/kg/injection, schedule: Q01DX001 (ip), vehicle: other 108 % of control

CC(Cc1ccccc1)N(C)N (stereo not drawn)
inactive: dose: 1.56 mg/kg/injection, schedule: Q01DX009 (ip), vehicle: saline 94 % of control | dose: 3.12 mg/kg/injection, schedule: Q01DX009 (ip), vehicle: saline 102 % of control | dose: 6.25 mg/kg/injection, schedule: Q01DX009 (ip), vehicle: saline 91 % of control | dose: 12.5 mg/kg/injection, schedule: Q01DX009 (ip), vehicle: saline 88 % of control | dose: 25.0 mg/kg/injection, schedule: Q01DX009 (ip), vehicle: saline 102 % of control

CC(N)c1cccc2ccccc12 (stereo not drawn)
inactive: dose: 25.0 mg/kg/injection, schedule: Q04DX002 (ip), vehicle: saline 98 % of control | dose: 50.0 mg/kg/injection, schedule: Q04DX002 (ip), vehicle: saline 94 % of control | dose: 100.0 mg/kg/injection, schedule: Q04DX002 (ip), vehicle: saline 98 % of control

CCCN(CCC)CCCCCO
inactive: dose: 50.0 mg/kg/injection, schedule: Q01DX009 (ip), vehicle: saline with Tween-80 102 % of control | dose: 100.0 mg/kg/injection, schedule: Q01DX009 (ip), vehicle: saline with Tween-80 106 % of control | [12] 94 % of control | dose: 200.0 mg/kg/injection, schedule: Q01DX009 (ip), vehicle: saline with Tween-80 102 % of control | [13] 102 % of control

CCC(C)n1ncc2c(N(C)C)ncnc21 (stereo not drawn)
inactive: dose: 50.0 mg/kg/injection, schedule: Q01DX009 (ip), vehicle: saline 103 % of control | dose: 50.0 mg/kg/injection, schedule: Q04DX003 (ip), vehicle: saline 105 % of control | [14] 98 % of control | [15] 115 % of control | [16] 105 % of control | [17] 102 % of control | [18] 107 % of control

O=S1(=O)CC(N2CCCCC2)C12CC1c3ccccc3C2c2ccccc21 (stereo not drawn)
inactive: [2] 104 % of control | [3] 101 % of control | [4] 101 % of control

CC1(C)C(=O)C=C(c2ccccc2)C1(O)c1ccccc1 (stereo not drawn)
inactive: [12] 99 % of control | [13] 96 % of control | dose: 400.0 mg/kg/injection, schedule: Q04DX003 (ip), vehicle: saline with Tween-80 96 % of control

O=S(=O)(NC(CCl)=NCc1ccccc1)c1ccccc1
inactive: [2] 96 % of control | [3] 100 % of control | [4] 86 % of control

NC(Cc1ccc(O)c(I)c1)C(=O)O (stereo not drawn)
inactive: [15] 96 % of control | [16] 101 % of control | dose: 200.0 mg/kg/injection, schedule: Q01DX009 (ip), vehicle: saline 98 % of control | [18] 93 % of control | dose: 400.0 mg/kg/injection, schedule: Q04DX003 (ip), vehicle: saline 100 % of control

CCCCCCCCCC[n+]1ccc(C(N)=O)cc1
inactive: dose: 5.0 mg/kg/injection, schedule: Q01DX009 (ip), vehicle: saline with Tween-80 97 % of control | dose: 5.0 mg/kg/injection, schedule: Q04DX003 (ip), vehicle: saline 97 % of control | dose: 10.0 mg/kg/injection, schedule: Q01DX009 (ip), vehicle: saline with Tween-80 96 % of control | dose: 10.0 mg/kg/injection, schedule: Q04DX003 (ip), vehicle: saline 94 % of control | dose: 20.0 mg/kg/injection, schedule: Q01DX009 (ip), vehicle: saline with Tween-80 96 % of control | dose: 20.0 mg/kg/injection, schedule: Q04DX003 (ip), vehicle: saline 103 % of control

CCS(=O)(=O)C(CCC(S(=O)(=O)CC)S(=O)(=O)CC)S(=O)(=O)CC
inactive: [14] 110 % of control | [17] 96 % of control | [19] 102 % of control

CCOC(=O)C(CN(CC)CC)c1ccccc1 (stereo not drawn)
inactive: dose: 88.8 mg/kg/injection, schedule: Q01DX001 (ip), vehicle: carboxymethylcellulose (CMC) 97 % of control and 105 % of control | [6] 118 % of control | [7] 97 % of control and 98 % of control | [8] 105 % of control and 109 % of control | [10] 98 % of control and 106 % of control | [11] 115 % of control

O=C(O)CNC(=O)c1ccccc1C(=O)NCC(=O)OCc1ccccc1
inactive: dose: 50.0 mg/kg/injection, schedule: Q01DX001 (ip), vehicle: saline 94 % of control | [14] 91 % of control | [17] 91 % of control | [19] 97 % of control
